In patent publication US20260200919A1, “SUBSTITUTED AMINOPYRIDINE COMPOUNDS AND METHODS OF TREATING DISEASE USING SAME” (Atavistik Bio, Inc., priority 2023, published 2026) one finds IC50 data, which are given here for 21 compounds.

Each structure is given as a SMILES string.

By IC50 is commonly meant the concentration that inhibits the measured activity by half.

The target of assay [1] is T1, human recombinant kinase full-length wildtype AKT1 (Homo sapiens, UniProt P31749).
T1 construct: Purified human recombinant kinase full-length wildtype AKT1 was expressed in insect cells; made in house; host or cells: insect cells
Kind of assay: AKT1 kinase assay (wildtype, TR-FRET, Lance). Type of assay: biochemical. Conditions: 0.6 nM wildtype AKT1, 50 nM Ulight-CREBtide, either 50 μM ATP or 2 mM ATP (not specified which), 60 min at RT. The procedure:
AKT1 kinase assay: Inhibitory effects of compounds on wildtype AKT1 were undertaken in a 10-pt dose response kinase activity assay measuring phospho-peptide product formation based on TR-FRET signal as described in the following paragraph.
(§1) Purified human recombinant kinase full-length wildtype AKT1 was expressed in insect cells and activated in vitro by PDPK1. Ulight™—CREBtide (PerkinElmer, catalog number TRF0107) was used as the peptide substrate. The reaction buffer consisted of 50 mM HEPES pH 7.5, 10 mM MgCl2, 0.01% Triton X-100, 0.01% BSA, 2 mM DTT, 0.6 nM AKT1, 50 nM Ulight™-CREBtide and either 50 μM ATP or 2 mM ATP. The compound solution was prepared as 10 mM DMSO stock. […] Final DMSO concentration in the assay was 1%. […] The reaction was stopped after 60 min of incubation at RT by the addition of 10 μL of Detection Mix (PerkinElmer, #CR97-100) consisting of Europium-anti-phospho-CREB (Ser133) (Perkin Elmer, catalog numberTRF0200). Incubation with the detection mix for a further 60 min allowed binding of antibody to the phospho-Ulight™ CREBtide. The fluorescence emissions at 620 nm and 665 nm after excitation at […] was measured using Envision reader. The ratio of the emissions at 665 nm and at 620 nm provided the measure for the amount of phosphorylated CREBtide product of AKT1 kinase activity.
For orientation: TR-FRET usually uses a lanthanide donor and a delayed reading to cut background.

Assay [2] deals with T2, human recombinant kinase full-length AKT1 E17K (Homo sapiens, UniProt P31749, E17K).
T2 construct: Purified human recombinant kinase full-length AKT1 E17K was expressed in insect cells; made in house; host or cells: insect cells
Kind of assay: AKT1 E17K kinase assay (TR-FRET, Lance). The format is biochemical. The settings on record: 0.6 nM AKT1 E17K, 50 nM Ulight-CREBtide, either 50 μM ATP or 2 mM ATP (not specified which), 60 min at RT. As for the experimental part:
AKT1 E17K kinase assay: Inhibitory effects of compounds on AKT1 E17K were undertaken in a 10-pt dose response kinase activity assay measuring phospho-peptide product formation based on TR-FRET signal as described in the following paragraph.
as §1, with “full-length” for “full-length wildtype”, “AKT1 E17K” for “AKT1”, “Ulight™-CREBtide” for “Ulight™—CREBtide”, “AKT1 E17K,” for “AKT1,”, “nM. Ulight™ CREBtide” for “nM Ulight™-CREBtide”

T1 sequence (P31749 whole entry): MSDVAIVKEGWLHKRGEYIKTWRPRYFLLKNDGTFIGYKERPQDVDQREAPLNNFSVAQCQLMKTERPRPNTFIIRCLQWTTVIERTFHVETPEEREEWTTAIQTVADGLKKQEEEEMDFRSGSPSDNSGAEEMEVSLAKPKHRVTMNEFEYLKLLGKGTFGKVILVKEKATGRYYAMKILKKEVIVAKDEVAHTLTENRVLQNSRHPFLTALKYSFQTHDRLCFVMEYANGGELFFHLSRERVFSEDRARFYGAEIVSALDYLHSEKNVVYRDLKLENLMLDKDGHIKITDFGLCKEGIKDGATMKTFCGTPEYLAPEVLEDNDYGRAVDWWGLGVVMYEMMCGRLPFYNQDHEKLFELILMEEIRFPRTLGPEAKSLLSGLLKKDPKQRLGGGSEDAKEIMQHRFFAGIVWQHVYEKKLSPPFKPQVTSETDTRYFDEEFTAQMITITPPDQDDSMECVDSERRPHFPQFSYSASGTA
T2 sequence (P31749 whole entry E17K): as the sequence (P31749 whole entry) above, with E17K counted along it

Regarding `Nc1ncccc1-c1nc2ccc(-c3ccccc3)cc2n1-c1ccc(CNC(=O)c2cccc(CC(=O)O)c2)cc1` [Compound 51, 2-(3-((4-(2-(2-aminopyridin-3-yl)-6-phenyl-1H-benzo[d]imidazol-1-yl)benzyl)carbamoyl)phenyl)acetic acid], the IC50 in assay [1] was below 500 nM; in assay [2], 50 to 200 nM.
The matching figures for `Nc1ncccc1-c1nc2ccc(-c3ccccc3)nc2n1-c1ccc(C(=O)NCc2cccc(CC(=O)O)c2)cc1` [Compound 52, 2-(3-((4-(2-(2-aminopyridin-3-yl)-5-phenyl-3H-imidazo[4,5-b]pyridin-3-yl)benzamido)methyl)phenyl)acetic acid]: above 500 nM and above 500 nM.
On to `Nc1ncccc1-c1nc2ccc(-c3ccccc3)nc2n1-c1ccc(NC(=O)c2ccc(C(=O)O)cc2)cc1` [Compound 53], for which the half-inhibitory concentration (IC50) in assay [1] was below 500 nM; in assay [2], below 50 nM.
Consider `Nc1ncccc1-c1nc2ccc(-c3ccccc3)nc2n1-c1ccc(NC(=O)c2cccc(C(=O)O)c2)cc1` [Compound 54, 3-[[4-[2-(2-amino-3-pyridyl)-5-phenyl-imidazo[4,5-b]pyridin-3-yl]phenyl]carbamoyl]benzoic acid], for which the figures for the IC50 in assay [1] and in assay [2] were below 500 nM and below 50 nM, respectively.
Taken in the same sequence, the figures for `Nc1ncccc1-c1nc2ccc(-c3ccccc3)nc2n1-c1ccc(NC(=O)c2cccc(C(=O)O)c2F)cc1` [Compound 55, 3-[[4-[2-(2-amino-3-pyridyl)-5-phenyl-imidazo[4,5-b]pyridin-3-yl]phenyl]carbamoyl]-2-fluoro-benzoic acid] were below 500 nM and below 50 nM.
Turning to `Nc1ncccc1-c1nc2ccc(-c3ccccc3)nc2n1-c1ccc(NC(=O)c2cccc(CC(=O)O)c2)cc1` [Compound 56, 2-(3-((4-(2-(2-aminopyridin-3-yl)-5-phenyl-3H-imidazo[4,5-b]pyridin-3-yl)phenyl)carbamoyl)phenyl)acetic acid], the values for the IC50 in assay [1] and in assay [2] were below 500 nM and below 50 nM, respectively.
The matching figures for `Nc1ncccc1-c1nc2ccc(-c3ccccc3)nc2n1-c1ccc(NC(=O)c2cccc(CCC(=O)O)c2)cc1` [Compound 57, 3-(3-((4-(2-(2-aminopyridin-3-yl)-5-phenyl-3H-imidazo[4,5-b]pyridin-3-yl)phenyl)carbamoyl)phenyl) propanoic acid]: below 500 nM and below 50 nM.
Take `Nc1ncccc1-c1nc2ccc(-c3ccccc3)nc2n1-c1ccc(NCc2ccc(C(=O)O)cc2)cc1` [Compound 58, 4-[[4-[2-(2-amino-3-pyridyl)-5-phenyl-imidazo[4,5-b]pyridin-3-yl]anilino]methyl]benzoic acid]: the IC50 is below 500 nM in assay [1] and 50 to 200 nM in assay [2].
With `Nc1ncccc1-c1nc2ccc(-c3ccccc3)nc2n1-c1ccc(NC(=O)c2ccc(C(=O)O)cc2)nc1` [Compound 59, 4-((5-(2-(2-aminopyridin-3-yl)-5-phenyl-3H-imidazo[4,5-b]pyridin-3-yl)pyridin-2-yl)carbamoyl)benzoic acid], the 50% inhibitory concentration (IC50) in assay [1] was below 500 nM; in assay [2], below 50 nM.
As to `Nc1ncccc1-c1nc2ccc(-c3ccccc3)nc2n1-c1ccc(NC(=O)c2cccc(C(=O)O)c2)nc1` [Compound 60, 3-((5-(2-(2-aminopyridin-3-yl)-5-phenyl-3H-imidazo[4,5-b]pyridin-3-yl)pyridin-2-yl)carbamoyl)benzoic acid], the IC50 in assay [1] is below 500 nM; in assay [2], below 50 nM.
As to `Nc1ncccc1-c1nc2ccc(-c3ccccc3)nc2n1-c1ccc(NC(=O)c2cccc(C(=O)O)c2F)nc1` [Compound 61, 3-((5-(2-(2-aminopyridin-3-yl)-5-phenyl-3H-imidazo[4,5-b]pyridin-3-yl)pyridin-2-yl)carbamoyl)-2-fluorobenzoic acid], the results for the IC50 in assay [1] and in assay [2] were below 500 nM and 50 to 200 nM, respectively.
Taken in the same sequence, the figures for `Nc1ncccc1-c1nc2ccc(-c3ccccc3)nc2n1-c1ccc(NC(=O)c2ccc(C(=O)O)cc2F)nc1` [Compound 62, 4-((5-(2-(2-aminopyridin-3-yl)-5-phenyl-3H-imidazo[4,5-b]pyridin-3-yl)pyridin-2-yl)carbamoyl)-3-fluorobenzoic acid] were below 500 nM and 50 to 200 nM.
Take `Cc1cc(C(=O)O)ccc1C(=O)Nc1ccc(-n2c(-c3cccnc3N)nc3ccc(-c4ccccc4)nc32)cn1` [Compound 63, 4-[[5-[2-(2-amino-3-pyridyl)-5-phenyl-imidazo[4,5-b]pyridin-3-yl]-2-pyridyl]carbamoyl]-3-methyl-benzoic acid]: the concentration for half-maximal inhibition (IC50) is below 500 nM in assay [1] and 200 to 500 nM in assay [2].
Turning to `Nc1ncccc1-c1nc2ccc(-c3ccccc3)nc2n1-c1ccc(NC(=O)c2cccc(CC(=O)O)c2)nc1` [Compound 64, 2-(3-((5-(2-(2-aminopyridin-3-yl)-5-phenyl-3H-imidazo[4,5-b]pyridin-3-yl)pyridin-2-yl)carbamoyl)phenyl) acetic acid], the IC50 is below 500 nM in assay [1] and below 50 nM in assay [2].
Regarding `Nc1ncccc1-c1nc2ccc(-c3ccccc3)nc2n1-c1ccc(NC(=O)c2cccc(C(=O)O)c2F)c(F)c1` [Compound 65, 3-((4-(2-(2-aminopyridin-3-yl)-5-phenyl-3H-imidazo[4,5-b]pyridin-3-yl)-2-fluorophenyl)carbamoyl)-2-fluorobenzoic acid], the figures for the IC50 in assay [1] and in assay [2] were below 500 nM and 200 to 500 nM, respectively.
With `Cc1cc(C(=O)O)ccc1C(=O)Nc1ccc(-n2c(-c3cccnc3N)nc3ccc(-c4ccccc4)nc32)cc1F` [Compound 66, 4-((4-(2-(2-aminopyridin-3-yl)-5-phenyl-3H-imidazo[4,5-b]pyridin-3-yl)-2-fluorophenyl)carbamoyl)-3-methylbenzoic acid], the 50% inhibitory concentration (IC50) in assay [1] is above 500 nM; in assay [2] it was 200 to 500 nM.
Take `Nc1ncccc1-c1nc2ccc(-c3ccccc3)nc2n1-c1ccc(NC(=O)c2cccc(CC(=O)O)c2)c(F)c1` [Compound 67, 2-(3-((4-(2-(2-aminopyridin-3-yl)-5-phenyl-3H-imidazo[4,5-b]pyridin-3-yl)-2-fluorophenyl)carbamoyl)phenyl) acetic acid]: the values for the IC50 in assay [1] and in assay [2] were below 500 nM and 50 to 200 nM, respectively.
Regarding `Nc1ncccc1-c1nc2ccc(-c3ccccc3)nc2n1-c1ccc(NCc2ccc(C(=O)O)cc2F)nc1` [Compound 68, 4-[[[5-[2-(2-amino-3-pyridyl)-5-phenyl-imidazo[4,5-b]pyridin-3-yl]-2-pyridyl]amino]methyl]-3-fluoro-benzoic acid], the values for the concentration for half-maximal inhibition (IC50) in assay [1] and in assay [2] were below 500 nM and 50 to 200 nM, respectively.
Taken in the same sequence, the figures for `COC(=O)c1ccc(C(=O)N2CC(c3ccc(-n4c(-c5cccnc5N)nc5ccc(-c6ccccc6)nc54)cc3)C2)cc1` [Compound 69, methyl 4-(3-(4-(2-(2-aminopyridin-3-yl)-5-phenyl-3H-imidazo[4,5-b]pyridin-3-yl)phenyl)azetidine-1-carbonyl)benzoate] were below 500 nM and above 500 nM.
Regarding `Nc1ncccc1-c1nc2ccc(-c3ccccc3)nc2n1-c1ccc(C2CN(C(=O)c3ccc(C(=O)O)cc3)C2)cc1` [Compound 70, 4-(3-(4-(2-(2-aminopyridin-3-yl)-5-phenyl-3H-imidazo[4,5-b]pyridin-3-yl)phenyl)azetidine-1-carbonyl)benzoic acid], the concentration for half-maximal inhibition (IC50) was below 500 nM in assay [1] and below 50 nM in assay [2].
Turning to `COC(=O)c1cccc(C(=O)N2CC(c3ccc(-n4c(-c5cccnc5N)nc5ccc(-c6ccccc6)nc54)cc3)C2)c1` [Compound 71, methyl 3-(3-(4-(2-(2-aminopyridin-3-yl)-5-phenyl-3H-imidazo[4,5-b]pyridin-3-yl)phenyl)azetidine-1-carbonyl)benzoate], the results for the IC50 in assay [1] and in assay [2] were below 500 nM and 50 to 200 nM, respectively.
